Key:
STZ-induced SHR rats [1] = assay: Body weight of STZ-induced SHR rats; assay type: in vivo, rat; conditions: 60 mg/kg twice/day, 6 weeks
Protocol: (§1) 6 W-age SHR rats were abstained from food but not water for 12 h before injection, and then intraperitoneally injected with 55 mg/kg STZ after weighing (STZ required for fast injection, to be completed within 10 min), then put back to the cage to ensure that rat has sufficient drinking water in the period of 24 h, and the rats of normal control group were injected with citric acid buffer (pH 4.5) in the same volume. After 3 weeks of STZ injection, retinal venous blood was collected, and blood glucose ≥16.7 mmol/L was used as a molding standard, where the model of SHR rats that meet the above criteria is considered successful.
(§2) The route of administration is intragastrical, TBN is administered twice a day (fixed at 9:00-10:00 am and 3:00-4:00 pm), and Losartan is administered once a day (fixed at 9:00-10:00 am), continuously for 6 weeks.
The general situation and weight changes are observed after the establishment of the rat model, and the general situation includes the activity of rats, mental state, hair color, diet, drinking water and urine volume, etc., and water consumption and feed weights were recorded each week.

STZ-induced DKD rats = assay: Serum erythropoietin (ELISA) in STZ-induced DKD rats; assay type: in vivo, rat
Protocol: Before the injection, the rats were fasted for 12 hours without water. After weighing, the rats were injected with 55 mg/kg STZ intraperitoneally (STZ needs to be injected quickly, and the injection was completed within 10 minutes), and then returned to the cage to ensure that the rats had sufficient drinking water for 24 hours. Rats were injected with an equal volume of citrate buffer (pH 4.5). After STZ injection for 3 weeks, blood was collected from the tail vein, and blood glucose ≥16.7 mmol/L was used as the criteria for the standard of the rats.
The route of administration is intragastric administration. TBN was administered twice a day (fixed at 9:00-10:00 am and 3:00-4:00 pm), and Losartan was administered once a day (fixed at 9:00-10:00 am) continuously for 6 weeks.
At the end of the experiment, after rats were anesthetized, blood was taken from the abdominal aorta, allowed to stand for 1 hour, the supernatant was collected by centrifugation at 3000 rmp for 10 min. The serum erythropoietin level was measured according to the kit operating instructions. […] In the measurement, the blank hole was adjusted to zero, and the absorbance (OD value) of each hole was measured in sequence with a wavelength of 450 nm. […]

db/db mice [2] = assay: HE histopathology of kidney tissue in db/db mice; assay type: in vivo, mouse
Text: db/db mice are congenital obese type 2 DKD mice with spontaneous mutations in the leptin receptor (Leptin receptor, Lepr) due to a point mutation in the leptin receptor gene GT located on chromosome 4. The course of polyphagia, polyuria, diabetes and hyperglycemia is similar to that of humans, and it is currently the most widely used type 2 spontaneous animal model of DKD. The db/db mice have a series of complications with the aggravation of diabetes. The main pathological changes of renal tissue are the expansion of the glomerular mesangial interstitium, the thickening of the glomerular basement membrane, and the excessive accumulation of extracellular matrix. However, the glomerular mesangium of db/db mice changes relatively slowly, and the glomerular mesangium will not be dissolved or nodular glomerulosclerosis, and there is no progressive renal insufficiency.
Six-week-old db/db mice were purchased, and start the administration after adaptive feeding for 1 week (i.e., 7-week-old). TBN is administered twice a day (fixed by starting from 9:00-10:00 am and 3:00-4:00 pm, with an interval of 6 hours), and the positive control drug Losartan was administered once a day (fixed at 9:00-10:00 am) for 6 weeks.
The HE dyeing process is as shown in Example 9.

STZ-induced SHR rats [3] = assay: HE kidney morphology of STZ-induced SHR rats; assay type: in vivo, rat; conditions: 60 mg/kg
Protocol: as §1, §2
The process is the same as in Example 9.

[4] = system: diabetic neuropathy model rats; assay: Mechanical pain threshold (von Frey) in diabetic neuropathy model rats; assay type: in vivo, rat; conditions: TBN 30 mg/kg twice a day
Protocol: Modeling method: STZ was weighed and transferred to a centrifuge tube, wrapped with aluminum foil, kept away from light, and stored at −20° C. STZ sodium citrate solution is prepared when it is in need to use. The rats were fasted without water for 12 hours before injection. After weighing, the rats were injected with 55 mg/kg STZ intraperitoneally (STZ needs to be injected quickly, and the injection was completed within 10 minutes), and then returned to the cage to ensure that the rats had sufficient drinking water for 24 hours. Rats were injected with an equal volume of citrate buffer (pH 4.5). Four weeks after STZ injection, blood was collected from the tail vein, and the rats with blood glucose less than 16.7 mmol/L were eliminated; the taillick threshold temperature was increased, and the mechanical withdrawal threshold (MWT) was decreased, as the standard of a successful DPN model.
The animals were randomly divided into 3 groups (n=7), namely the normal control group, the model group, and the TBN (30 mg/kg) group. The normal group and the model group were injected with an equal volume of normal saline, and TBN was administered twice a day (fixed at 9:00-10:00 am and 3:00-4:00 pm), continuously for 4 weeks.
Experiment for detecting mechanical pain threshold: In a quiet environment, the rats were individually placed in a porous steel wire cage. […]

db/db mice [5] = assay: Urinary albumin/creatinine ratio in db/db mice, TBN alone and in combination; assay type: in vivo, mouse; conditions: TBN 30 mg/kg, Losartan 10 mg/kg, TBN+Losartan (FIG. 17)
Protocol: Grouping and dosing are the same as in Example 9. At the end of the experiment, 24 h urine samples were collected, antiseptic treatment was performed to all urine specimens with toluene, 24 h urine was centrifuged to remove precipitation and placed in a 1.5 mLEP tube and then placed in a refrigerator at −20° C. for later use, urinary albumin content was measured with ELISA kits, urine creatinine levels were detected by use of an automatic biochemical analyzer, and the ratio of both was calculated. The results as shown in FIG. 19 indicate that the ratio of urinary microalbumin to creatinine in DB/DB group was higher than that in wt/wt group, and the db/db mice 24 h urinary albumin creatinine ratio decreased in TBN group, losartan group and TBN-losartan combination group. Referring to this method, metformin (150 mg/kg, qd), and HIF-PH inhibitor roxadustat (10 mg/kg, once 2 every days) were given via oral administration, the combination groups of TBN with respectively metformin and roxadustat also reduce 24 h urinary albumin creatinine ratio.

## Cc1nc(C)c(/C=[N+](\[O-])C(C)(C)C)nc1C [TBN]
STZ-induced SHR rats [1]
  body weight vs SHR-STZ group: increased significantly
STZ-induced DKD rats; 30 mg/kg and 60 mg/kg, P<0.05
  serum EPO content: increased EPO content with significant statistical difference
STZ-induced DKD rats; TBN dose groups (10, 30, 60 mg/kg) vs vehicle, to varying degrees
  serum EPO content: increased
db/db mice [2]; 30 mg/kg and 60 mg/kg dose groups
  degree of infiltration of kidney inflammatory cells vs db/db group: obviously improved
db/db mice [2]; TBN dose groups (10, 30, 60 mg/kg), in various degrees
  pathological structure of kidney injury (H&E): improvement
db/db mice [2]; TBN treatment groups, dose-dependent, more significantly for 30 mg/kg and 60 mg/kg
  glomerular area (glomerular surface): reduced
STZ-induced SHR rats [3]
  renal pathological changes (H&E): improvement
[4]; 2 weeks after administration (6 weeks after STZ)
  mechanical pain threshold vs model group: no statistically significant difference
[4]; 4 weeks after administration (8 weeks after STZ), P<0.05
  mechanical pain threshold vs model group: increased
db/db mice [5]
  24 h urinary albumin creatinine ratio: decreased
